Earlier results in US9981058B2, “Balloon surface coating” (CARDIONOVUM Sp.z.o.o., priority 2011, dated 2018).
Where two headings read alike, the source gives them in different places.

Solubility (in dimethyl sulfoxide (DMSO), methanol and anhydrous ethanol): highly soluble
Solubility (in water): comparatively poorly soluble
Structure (SMILES): CC(=O)O[C@H]1C(=O)[C@@]2(C)[C@H]([C@H](OC(=O)c3ccccc3)[C@]3(O)C[C@H](OC(=O)[C@H](O)[C@@H](NC(=O)c4ccccc4)c4ccccc4)C(C)=C1C3(C)C)[C@]1(OC(C)=O)CO[C@@H]1C[C@@H]2O (relative stereo) [Paclitaxel, [2aR-[2a,4,4a,6,9(R*,S*),11, 12,12a,12b]]-(benzoylamino)-hydroxybenzene propionic acid 6,12b-bis-(acetyloxy)-12-(benzoyloxy)-2a-3,4,4a,5,6,9, 10, 11, 12, 12a,12b-dodecahydro-4, 11-dihydroxy-4a,8,13,13-tetramethyl-5-oxo-7,11-methano-1H-cyclodeca[3,4]benz[1,2-b]oxet-9-yl ester)]
